Measurements reported in the kinase profiling compilation of Christmann-Franck et al. (2016).

Assays:
Test in all cases: radiometric filter-binding kinase assay, Kinase HotSpot
Conditions in all cases: compound 0.5 µM; ATP 10 µM
TBK1 (human) = TBK1 (human) (UniProt Q9UHD2)
KIT (human) = KIT (human) (UniProt P10721)
CAMK2B (human) = CAMK2B (human) (UniProt Q13554)
MAPK1 (human) = MAPK1 (human) (UniProt P28482)
CHEK1 (human) = CHEK1 (human) (UniProt O14757)
SRC (human) = SRC (human) (UniProt P12931)
EPHB4 (human) = EPHB4 (human) (UniProt P54760)
CSNK1A1 (human) = CSNK1A1 (human) (UniProt P48729)
TGFBR2 (human) = TGFBR2 (human) (UniProt P37173)
MAPK13 (human) = MAPK13 (human) (UniProt O15264)
PRKACA (human) = PRKACA (human) (UniProt P17612)
PAK1 (human) = PAK1 (human) (UniProt Q13153)
PDGFRA (human) = PDGFRA (human) (UniProt P16234)
WEE1 (human) = WEE1 (human) (UniProt P30291)
Sequence of WEE1 (human) (P30291 whole entry, looked up): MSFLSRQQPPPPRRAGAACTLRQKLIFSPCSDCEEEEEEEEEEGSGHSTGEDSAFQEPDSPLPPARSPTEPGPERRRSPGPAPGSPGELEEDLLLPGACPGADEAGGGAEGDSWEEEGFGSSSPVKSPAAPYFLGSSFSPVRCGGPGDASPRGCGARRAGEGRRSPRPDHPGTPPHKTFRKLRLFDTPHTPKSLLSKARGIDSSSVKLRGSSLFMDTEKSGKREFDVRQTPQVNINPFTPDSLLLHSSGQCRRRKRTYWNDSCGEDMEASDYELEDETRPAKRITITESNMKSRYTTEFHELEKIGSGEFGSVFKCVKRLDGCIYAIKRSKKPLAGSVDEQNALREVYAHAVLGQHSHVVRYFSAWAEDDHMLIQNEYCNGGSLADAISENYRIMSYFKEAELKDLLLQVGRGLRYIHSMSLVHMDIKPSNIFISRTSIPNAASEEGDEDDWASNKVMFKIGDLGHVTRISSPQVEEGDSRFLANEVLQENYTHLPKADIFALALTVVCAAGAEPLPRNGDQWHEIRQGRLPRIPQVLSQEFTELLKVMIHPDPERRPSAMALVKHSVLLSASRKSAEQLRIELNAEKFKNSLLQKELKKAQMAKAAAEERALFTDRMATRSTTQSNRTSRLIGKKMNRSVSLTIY

PRKD2 (human) = PRKD2 (human) (UniProt Q9BZL6)
CDK1 CCNB1 (human) = CDK1 CCNB1 (human) (UniProt P06493+P14635)
CDK6 CCND3 (human) = CDK6 CCND3 (human) (UniProt P30281+Q00534)
CDK5 CDK5R1 p25 (human) = CDK5 CDK5R1 p25 (human) (UniProt Q00535+Q15078)
GRK7 (human) = GRK7 (human) (UniProt Q8WTQ7)
PRKD1 (human) = PRKD1 (human) (UniProt Q15139)
FLT3 (human) = FLT3 (human) (UniProt P36888)
ERBB4 (human) = ERBB4 (human) (UniProt Q15303)
GRK4 (human) = GRK4 (human) (UniProt P32298)
AXL (human) = AXL (human) (UniProt P30530)
FLT1 (human) = FLT1 (human) (UniProt P17948)
WNK3 (human) = WNK3 (human) (UniProt Q9BYP7)
Sequence of WNK3 (human) (Q9BYP7 whole entry, looked up): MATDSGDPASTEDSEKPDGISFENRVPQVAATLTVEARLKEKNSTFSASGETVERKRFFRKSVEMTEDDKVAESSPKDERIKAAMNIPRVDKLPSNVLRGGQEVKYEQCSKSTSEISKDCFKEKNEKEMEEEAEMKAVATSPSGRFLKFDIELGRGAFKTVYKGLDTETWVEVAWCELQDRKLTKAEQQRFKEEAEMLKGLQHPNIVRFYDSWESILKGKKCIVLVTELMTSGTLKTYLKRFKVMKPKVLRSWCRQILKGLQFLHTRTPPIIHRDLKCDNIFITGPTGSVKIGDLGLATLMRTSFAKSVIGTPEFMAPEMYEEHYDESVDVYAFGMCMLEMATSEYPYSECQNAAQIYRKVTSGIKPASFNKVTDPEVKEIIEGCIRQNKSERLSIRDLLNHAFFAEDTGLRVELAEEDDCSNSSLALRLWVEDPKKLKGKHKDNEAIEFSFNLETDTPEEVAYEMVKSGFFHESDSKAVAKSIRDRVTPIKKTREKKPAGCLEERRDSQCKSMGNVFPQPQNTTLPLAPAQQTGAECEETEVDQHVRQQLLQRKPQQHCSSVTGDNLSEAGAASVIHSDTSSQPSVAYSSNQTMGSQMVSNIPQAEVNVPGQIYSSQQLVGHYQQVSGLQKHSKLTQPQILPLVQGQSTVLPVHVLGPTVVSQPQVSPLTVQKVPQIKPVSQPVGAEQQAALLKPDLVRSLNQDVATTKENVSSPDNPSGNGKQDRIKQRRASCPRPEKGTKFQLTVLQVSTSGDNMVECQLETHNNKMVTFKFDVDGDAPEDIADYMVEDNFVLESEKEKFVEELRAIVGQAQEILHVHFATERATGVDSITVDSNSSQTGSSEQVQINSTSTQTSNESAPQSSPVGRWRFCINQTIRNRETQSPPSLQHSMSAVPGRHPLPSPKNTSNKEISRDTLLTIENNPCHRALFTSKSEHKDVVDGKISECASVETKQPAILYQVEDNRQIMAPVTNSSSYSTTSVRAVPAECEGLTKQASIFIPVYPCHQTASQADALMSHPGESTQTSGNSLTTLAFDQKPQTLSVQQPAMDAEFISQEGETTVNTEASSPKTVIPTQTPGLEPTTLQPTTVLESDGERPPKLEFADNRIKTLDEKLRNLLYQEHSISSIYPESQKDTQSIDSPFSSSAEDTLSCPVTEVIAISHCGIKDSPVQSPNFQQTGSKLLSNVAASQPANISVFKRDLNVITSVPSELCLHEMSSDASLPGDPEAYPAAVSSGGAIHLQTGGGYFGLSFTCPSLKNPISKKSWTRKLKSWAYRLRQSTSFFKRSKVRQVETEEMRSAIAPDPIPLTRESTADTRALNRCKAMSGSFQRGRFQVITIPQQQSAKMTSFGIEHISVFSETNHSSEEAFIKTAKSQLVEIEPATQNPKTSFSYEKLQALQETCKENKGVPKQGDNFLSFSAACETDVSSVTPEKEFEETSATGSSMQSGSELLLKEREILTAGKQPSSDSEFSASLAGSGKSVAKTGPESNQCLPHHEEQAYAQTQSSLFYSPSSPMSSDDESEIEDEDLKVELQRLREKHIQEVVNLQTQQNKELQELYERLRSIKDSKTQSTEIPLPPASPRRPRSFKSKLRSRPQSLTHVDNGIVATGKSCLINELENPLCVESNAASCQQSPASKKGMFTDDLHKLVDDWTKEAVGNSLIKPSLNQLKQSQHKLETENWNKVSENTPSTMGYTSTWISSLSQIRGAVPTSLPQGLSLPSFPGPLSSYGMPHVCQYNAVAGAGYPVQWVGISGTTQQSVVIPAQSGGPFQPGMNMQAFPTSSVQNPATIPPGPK

MAPK11 (human) = MAPK11 (human) (UniProt Q15759)
GRK5 (human) = GRK5 (human) (UniProt P34947)
Sequence of GRK5 (human) (P34947 whole entry, looked up): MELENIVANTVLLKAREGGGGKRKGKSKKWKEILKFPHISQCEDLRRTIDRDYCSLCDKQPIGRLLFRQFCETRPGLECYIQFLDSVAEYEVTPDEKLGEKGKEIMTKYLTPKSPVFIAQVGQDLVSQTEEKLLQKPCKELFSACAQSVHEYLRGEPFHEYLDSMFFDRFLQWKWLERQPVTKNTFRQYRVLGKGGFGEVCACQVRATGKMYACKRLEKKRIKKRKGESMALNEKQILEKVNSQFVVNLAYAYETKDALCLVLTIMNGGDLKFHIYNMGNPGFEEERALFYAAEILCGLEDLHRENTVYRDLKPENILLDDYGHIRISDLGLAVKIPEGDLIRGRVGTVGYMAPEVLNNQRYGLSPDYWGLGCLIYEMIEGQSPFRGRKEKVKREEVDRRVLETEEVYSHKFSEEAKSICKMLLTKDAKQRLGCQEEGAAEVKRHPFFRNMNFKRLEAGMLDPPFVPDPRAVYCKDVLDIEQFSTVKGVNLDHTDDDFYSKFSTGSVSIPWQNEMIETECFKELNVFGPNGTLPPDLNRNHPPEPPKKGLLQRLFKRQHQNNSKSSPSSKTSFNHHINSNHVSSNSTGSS

RET (human) = RET (human) (UniProt P07949)
MAPKAPK3 (human) = MAPKAPK3 (human) (UniProt Q16644)
Sequence of MAPKAPK3 (human) (Q16644 whole entry, looked up): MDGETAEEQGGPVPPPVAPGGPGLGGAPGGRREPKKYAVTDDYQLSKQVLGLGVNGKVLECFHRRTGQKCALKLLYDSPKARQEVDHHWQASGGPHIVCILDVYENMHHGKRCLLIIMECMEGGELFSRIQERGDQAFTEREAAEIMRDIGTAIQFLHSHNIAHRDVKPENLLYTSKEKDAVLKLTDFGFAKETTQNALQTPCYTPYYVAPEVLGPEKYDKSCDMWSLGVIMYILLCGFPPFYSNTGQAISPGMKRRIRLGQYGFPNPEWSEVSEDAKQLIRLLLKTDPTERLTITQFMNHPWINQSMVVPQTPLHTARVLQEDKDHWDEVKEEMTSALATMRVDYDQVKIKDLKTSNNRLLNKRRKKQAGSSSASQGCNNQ

FRK (human) = FRK (human) (UniProt P42685)
RAF1 (human) = RAF1 (human) (UniProt P04049)
ALK (human) = ALK (human) (UniProt Q9UM73)
RPS6KA1 KD1 KD2 (human) = RPS6KA1 KD1 KD2 (human) (UniProt Q15418)
Sequence of RPS6KA1 KD1 KD2 (human) (Q15418 whole entry, looked up): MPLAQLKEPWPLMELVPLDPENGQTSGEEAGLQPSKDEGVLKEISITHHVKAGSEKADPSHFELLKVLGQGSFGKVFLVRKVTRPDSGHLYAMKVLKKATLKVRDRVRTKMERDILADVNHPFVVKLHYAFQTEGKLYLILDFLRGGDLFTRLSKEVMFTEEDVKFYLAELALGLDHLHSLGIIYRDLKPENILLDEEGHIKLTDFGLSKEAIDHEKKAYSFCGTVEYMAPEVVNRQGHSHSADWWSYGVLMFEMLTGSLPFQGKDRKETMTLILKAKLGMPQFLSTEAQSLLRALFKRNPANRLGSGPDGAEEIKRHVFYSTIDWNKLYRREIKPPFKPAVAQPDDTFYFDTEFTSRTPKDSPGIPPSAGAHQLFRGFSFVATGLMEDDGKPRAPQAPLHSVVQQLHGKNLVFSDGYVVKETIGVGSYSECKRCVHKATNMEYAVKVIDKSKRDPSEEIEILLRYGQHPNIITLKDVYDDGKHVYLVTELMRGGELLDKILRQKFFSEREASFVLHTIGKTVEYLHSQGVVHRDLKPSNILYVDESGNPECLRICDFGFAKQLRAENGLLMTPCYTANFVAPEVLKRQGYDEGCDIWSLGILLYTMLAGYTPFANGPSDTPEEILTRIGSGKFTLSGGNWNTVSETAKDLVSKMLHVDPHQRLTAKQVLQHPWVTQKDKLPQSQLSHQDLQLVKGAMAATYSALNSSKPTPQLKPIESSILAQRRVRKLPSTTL

PLK3 (human) = PLK3 (human) (UniProt Q9H4B4)
RPS6KA2 KD1 KD2 (human) = RPS6KA2 KD1 KD2 (human) (UniProt Q15349)
CSNK2A1 (human) = CSNK2A1 (human) (UniProt P68400)
MAP4K5 (human) = MAP4K5 (human) (UniProt Q9Y4K4)
Sequence of MAP4K5 (human) (Q9Y4K4 whole entry, looked up): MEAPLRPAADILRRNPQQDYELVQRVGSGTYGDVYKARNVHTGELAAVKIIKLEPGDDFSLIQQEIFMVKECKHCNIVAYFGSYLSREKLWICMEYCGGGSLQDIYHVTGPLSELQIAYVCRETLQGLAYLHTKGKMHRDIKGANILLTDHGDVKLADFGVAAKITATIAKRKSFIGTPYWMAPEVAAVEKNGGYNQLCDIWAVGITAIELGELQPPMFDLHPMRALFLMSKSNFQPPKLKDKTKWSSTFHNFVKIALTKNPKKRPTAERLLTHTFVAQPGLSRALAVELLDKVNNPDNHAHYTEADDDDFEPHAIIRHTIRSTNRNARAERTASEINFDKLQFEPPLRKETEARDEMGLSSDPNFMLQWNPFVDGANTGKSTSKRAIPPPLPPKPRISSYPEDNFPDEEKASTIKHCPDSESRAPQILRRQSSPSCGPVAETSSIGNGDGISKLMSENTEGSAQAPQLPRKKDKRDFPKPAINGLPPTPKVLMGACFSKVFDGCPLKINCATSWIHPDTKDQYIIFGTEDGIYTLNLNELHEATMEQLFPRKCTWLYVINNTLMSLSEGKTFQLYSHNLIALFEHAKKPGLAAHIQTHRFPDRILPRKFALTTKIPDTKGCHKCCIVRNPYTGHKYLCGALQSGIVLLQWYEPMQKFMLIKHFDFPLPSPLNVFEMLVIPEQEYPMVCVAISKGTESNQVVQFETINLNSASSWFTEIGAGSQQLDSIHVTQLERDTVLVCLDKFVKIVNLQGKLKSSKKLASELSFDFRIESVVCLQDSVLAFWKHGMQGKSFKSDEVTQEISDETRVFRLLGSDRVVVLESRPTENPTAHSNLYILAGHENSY

STK10 (human) = STK10 (human) (UniProt O94804)
FYN (human) = FYN (human) (UniProt P06241)
CDK9 CCNT1 (human) = CDK9 CCNT1 (human) (UniProt P50750+O60563)

Which residual activity (TBK1 (human)) does the source give for `CC[n+]1c(/C=C/N(C)c2ccccc2)n(-c2ccccc2)c2ccc(-c3nc4ccccc4s3)cc21` here?
The residual activity was 95.7%.

And the residual activity (KIT (human))?
The residual activity was 104%.

And the residual activity (CAMK2B (human))?
Its residual activity is 103%.

What about the residual activity (MAPK1 (human)) of the same compound?
The residual activity was 112%.

What about the residual activity (CHEK1 (human)) of the same compound?
Its residual activity is 103%.

What about the residual activity (SRC (human)) of the same compound?
The residual activity was 94.5%.

And the residual activity (EPHB4 (human))?
The residual activity was 103%.

What about the residual activity (CSNK1A1 (human)) of the same compound?
Its residual activity is 106%.

What about the residual activity (TGFBR2 (human)) of the same compound?
The residual activity was 95.1%.

And the residual activity (MAPK13 (human))?
The residual activity was 102%.

What about the residual activity (PRKACA (human)) of the same compound?
The residual activity was 103%.

What about the residual activity (PAK1 (human)) of the same compound?
Its residual activity is 87.5%.

What about the residual activity (PDGFRA (human)) of the same compound?
The residual activity was 95.2%.

What about the residual activity (WEE1 (human)) of the same compound?
Its residual activity is 92.4%.

And the residual activity (PRKD2 (human))?
Its residual activity is 102%.

What about the residual activity (CDK1 CCNB1 (human)) of the same compound?
Its residual activity is 105%.

And the residual activity (CDK6 CCND3 (human))?
Its residual activity is 92.2%.

And the residual activity (CDK5 CDK5R1 p25 (human))?
The residual activity was 103%.

What about the residual activity (GRK7 (human)) of the same compound?
Its residual activity is 100%.

What about the residual activity (PRKD1 (human)) of the same compound?
The residual activity was 91.9%.

And the residual activity (FLT3 (human))?
Its residual activity is 98.6%.

And the residual activity (ERBB4 (human))?
Its residual activity is 102%.

And the residual activity (GRK4 (human))?
The residual activity was 103%.

What about the residual activity (AXL (human)) of the same compound?
The residual activity was 101%.

What about the residual activity (FLT1 (human)) of the same compound?
Its residual activity is 94.1%.

And the residual activity (WNK3 (human))?
The residual activity was 85.9%.

And the residual activity (MAPK11 (human))?
Its residual activity is 101%.

And the residual activity (GRK5 (human))?
Its residual activity is 109%.

And the residual activity (RET (human))?
The residual activity was 95.6%.

And the residual activity (MAPKAPK3 (human))?
The residual activity was 100%.

And the residual activity (FRK (human))?
Its residual activity is 97.1%.

What about the residual activity (RAF1 (human)) of the same compound?
Its residual activity is 96.8%.

And the residual activity (ALK (human))?
Its residual activity is 99.1%.

And the residual activity (RPS6KA1 KD1 KD2 (human))?
Its residual activity is 104%.

And the residual activity (PLK3 (human))?
The residual activity was 104%.

And the residual activity (RPS6KA2 KD1 KD2 (human))?
Its residual activity is 101%.

What about the residual activity (CSNK2A1 (human)) of the same compound?
Its residual activity is 96.8%.

What about the residual activity (MAP4K5 (human)) of the same compound?
Its residual activity is 91.7%.

And the residual activity (STK10 (human))?
Its residual activity is 101%.

What about the residual activity (FYN (human)) of the same compound?
The residual activity was 99.2%.

And the residual activity (CDK9 CCNT1 (human))?
Its residual activity is 89.5%.
